Test results taken from US6552011B1, “(Androst-5-en-17beta -yl)alkyl sulfoxides and sulfones and their use for control of fertility” (Akzo Nobel NV, priority 1999, dated 2003).

Key:
Assay type in all cases: cell-based, mice (B6D2-F1, strain C57BL×DBA)
denuded oocytes (DO) [1] = experiment: Oocyte assay, agonistic testing, DO assay (overcoming hypoxanthine maintained meiotic arrest); settings: hypoxanthine 4 mM medium, 22 hours culture, number in brackets = control
Source text: Oocytes arrested in meiosis contain diffused chromosomes which are surrounded by an intact nuclear envelope known as the germinal vesicle (GV). Upon reinitiation of meiosis by the midcycle gonadotropin surge, the chromosomes recondense and the GV breaks down (GVBD). In vivo, the oocyte is exposed to hypoxanthine (HX), which maintains the oocyte arrested in the meiotic prophase. This meiotic arrest can be mimicked in vitro by addition of hypoxanthine to the culture medium. The agonistic activity of meiosis activating substances is measured as the ability to overcome the hypoxanthine maintained meiotic arrest in denuded oocytes (DO) or cumulus enclosed oocytes (CEO), i.e. as the ability to induce meiotic resumption in vitro.
(§1) Ovaries are obtained from immature female mice (B6D2-F1, strain C57BL×DBA). At the age of 19, 20 or 21 days the mice are injected subcutaneously with a single dose of 20 IU follicle stimulating hormone (Humegon, Organon, The Netherlands) in saline.
Forty-eight hours after follicle stimulating hormone injection mice are killed by cervical dislocation. The ovaries are removed, freed of extraneous tissue and placed in a multidish containing 0.5 ml preparation medium at 37° C. L-15 Leibovitz medium (Gibco, pH 7.3±0.1) supplemented with bovine serum albumin (3 mg.ml^−1), L-glutamine (0.23 mM), sodium pyruvate (2 mM) and hypoxanthine (4 mM) is used as preparation medium. The antral follicles of the ovaries are punctured under a dissecting microscope using two 27-gauge needles attached to two 1 ml syringes. Cumulus enclosed oocytes (CEO) of uniform size are selected with a mouth-controlled pipette and rinsed in 0,5 ml fresh preparation medium. About 20 CEO are obtained from one ovary.
Oocytes freed from cumulus cells, i.e. denuded oocytes (DO), are obtained by gently flushing CEO through a fine-bore mouth-controlled pipette. DO were collected in fresh MEM alpha medium, containing bovine serum albumin (3 mg.ml^−1), L-glutamine (0.23 mM), sodium pyruvate (2 mM) and hypoxanthine (4 mM), and washed twice before transfer to the test medium.
(§2) The oocyte assay is performed in 3 blocks, each block represents the ovaries of one mouse (randomized block design). […] At t=0 the number of oocytes with intact germinal vesicles (GV) or germinal vesicle break-down (GVBD) is counted under an inverted microscope with differential interference contrast equipment. […] At the end of the culture period the number of oocytes with GV or GVBD per group is counted. For statistical analysis the percentage germinal vesicle breakdown is calculated for each group in one block. These percentages are subjected to arcsin transformation, and differences between control and test compounds are analyzed by an ANOVA test for a randomized block design. […]

denuded oocytes (DO) [2] = experiment: Oocyte assay, antagonistic testing, DO assay (inhibition of FF-Mas induced oocyte maturation); settings: FF-Mas 5 μM, compound 5 μM, hypoxanthine 4 mM medium, 22 hours culture, number in brackets = control (FF-Mas alone)
Method: (§3) The meiosis inhibiting activity of the (androst-5-en-17β-yl)alkyl sulfoxides and sulfones of the invention is measured in an in vitro oocyte assay as the ability to inhibit the FF-Mas or 22S-hydroxy-FF-Mas induced maturation, in hypoxanthine media, in denuded oocytes (DO) or cumulus enclosed oocytes (CEO), respectively. The compounds can be used to inhibit meiosis in both male and female and thus can be used as contraceptive agents.
(§4) Natural resumption of meiosis can be mimicked in vitro by addition of FF-Mas or other agonists to the culture medium containing hypoxanthine. The antagonistic activity of the compounds is measured as the ability to inhibit the FF-Mas or 22S-hydroxy-FF-Mas induced oocyte maturation in denuded oocytes or cumulus enclosed oocytes, respectively, in vitro.
as §1
Forty-eight hours after follicle stimulating hormone injection mice are killed by cervical dislocation. The ovaries are removed, freed of extraneous tissue and placed in a multidish containing 0.5 ml preparation medium at 37° C. L-15 Leibovitz medium (Gibco, pH 7.3±0.1) supplemented with bovine serum albumin (3 mg.ml^−1), L-glutamine (0.23 mM), sodium pyruvate (2 mM) and hypoxanthine (4 mM) is used as preparation medium. […]
as §2, with “block.” for “block. These percentages are subjected to arcsin transformation, and differences between control and test compounds are analyzed by an ANOVA test for a randomized block design.”

[3] = test system: cumulus enclosed oocytes (CEO); experiment: Oocyte assay, antagonistic testing, CEO assay (inhibition of 22S-hydroxy-FF-Mas induced oocyte maturation); settings: 22S-hydroxy-FF-Mas 5 μM, hypoxanthine 4 mM medium, 22 hours culture, number in brackets = control (22S-hydroxy-FF-Mas alone)
Method: as §3, §4, §1
Forty-eight hours after follicle stimulating hormone injection mice are killed by cervical dislocation. The ovaries are removed, freed of extraneous tissue and placed in a multidish containing 0.5 ml preparation medium at 37° C. […]
as §2

| SMILES | % GVBD DO assay exp.(control) (denuded oocytes (DO) [1]; compound 5 μM) | % GVBD DO assay exp.(control) (denuded oocytes (DO) [2]) | % GVBD CEO assay exp.(control) ([3]; compound 1.0 μM) | % GVBD CEO assay exp.(control) ([3]; compound 2.5 μM) | % GVBD DO assay exp.(control) (denuded oocytes (DO) [1]; compound 10 μM) |
| --- | --- | --- | --- | --- | --- |
| CC(C)=CC[C@H](O)[C@@H](C)[C@H]1CC=C2C3=C(CC[C@@]21C)[C@@]1(C)CC[C@H](O)C(C)(C)[C@@H]1CC3 [22S-hydroxy-FF-Mas, (3β,5α,20S,22S)-4,4-dimethylcholesta-8,14,24-triene-3,22-diol, reference compound] | 97(2) % | – | – | – | – |
| C[C@H](C[S@@+]([O-])c1ccccc1)[C@H]1CC[C@H]2[C@@H]3CC=C4C(C)(C)[C@@H](O)CC[C@]4(C)[C@H]3CC[C@]12C [Example 3a, [3β,20S,(21R)]-4,4,20-Trimethyl-21-(phenylsulfinyl)pregn-5-en-3-ol] | 4(12) % | 4(84) % | 34(96)^3% | – | – |
| CC(C)CC[C@@H](O)[C@@H](C)[C@H]1CC[C@H]2[C@@H]3CC=C4C[C@@H](O)CC[C@]4(C)[C@H]3CC[C@]12C [22R-hydroxycholesterol, (3β,20S,22R)-cholest-5-en-3-ol, reference compound] | – | 38(89) % | – | 52(89)^4% | – |
| CC(C)=CCC[C@@H](C)[C@H]1CC=C2C3=C(CC[C@@]21C)[C@@]1(C)CC[C@H](O)C(C)(C)[C@@H]1CC3 [FF-Mas, (3β,5α,20R)-4,4-dimethylcholesta-8,14,24-trien-3-ol, reference compound] | – | – | – | – | 84(7) % |
| C=C(C)C[S@+]([O-])C[C@@H](C)[C@H]1CC[C@H]2[C@@H]3CC=C4C(C)(C)[C@@H](O)CC[C@]4(C)[C@H]3CC[C@]12C [Example 1a, [3β,20S,(21R)]-4,4,20-Trimethyl-21-[(2-methyl-2-propenyl)sulfinyl]pregn-5-en-3-ol] | 3(12) % | 14(84) % | 9(96)^3% | – | – |
